From patent US9376700B2, “Methods of modifying N-termini of a peptide or protein using transferases” (The Trustees of the University of Pennsylvania, priority 2012, dated 2016)
Entries after “also recorded” stand apart in the source; their conditions may differ.

Legend:
Type in all cases: biochemical
[1] = target: T1, E. coli aminoacyl tRNA transferase (AaT) (Escherichia coli, UniProt P0A8P1); assay: AaT-catalyzed α-casein N-terminal modification (Edman degradation, tryptic digest MALDI MS); conditions: double addition of donor
T1 construct: made in house; host or cells: E. coli BL21-Gold (DE3), plasmid pEG6, Ni-NTA purified
T1 sequence (P0A8P1 whole entry): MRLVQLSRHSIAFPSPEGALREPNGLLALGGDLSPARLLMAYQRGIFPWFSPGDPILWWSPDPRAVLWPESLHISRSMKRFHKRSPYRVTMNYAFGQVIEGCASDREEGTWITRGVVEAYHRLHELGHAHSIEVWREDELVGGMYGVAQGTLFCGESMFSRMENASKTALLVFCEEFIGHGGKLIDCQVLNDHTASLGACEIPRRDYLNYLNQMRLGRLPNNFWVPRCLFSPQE
Method: HEPES pH 8.0, 1.50 mM KO, 10 mM MgCl2) and AaT (0.05 mg). The reaction mixture was incubated at 37° C. for 12 h, AaT was removed using Ni^2+ resin (Ni-NTA Superflow, Qiagen), and then buffer exchanged four times into phosphate buffered saline (PBS, 12 mM NaH2PO4, 50 mM NaCl, 4.7 mM KCl, pH 8.0) by Spectra/Por 1 dialysis tubing (Spectrum Laboratories; Rancho Dominguez, Calif.). Azf-modified α-casein was used directly after buffer exchange into PBS. Aliquots (1 nmol) of α-casein were diluted into PBS (22 μL) containing either fluorescein-alkyne (FlAlk, 91 μM) or propargylamine (Alk, 227 μM) for copper-catalyzed azide-alkyne cycloaddition (CuAAC). […] Reactions were boiled with gel loading dye LDS (Pierce; Rockford, Ill.) for 10 min at 95° C. and analyzed by SDS-PAGE. Fluorescence images were obtained with a Geldoc (BioRAD; Hercules, Calif.) using an excitation wavelength of 302 nm for detection of fluorescein. α-Casein was also directly visualized by Coomassie Brilliant Blue staining.
α-Casein-Azf (33 or α-casein (33 μg) was digested with sequencing grade modified Trypsin (0.6 μg) in 27 μL of 25 mM ammonium bicarbonate pH 7.5 (freshly prepared). Digestions were carried out at 37° C. for 14 h. Trypsin digest aliquots (1 μL) were combined with α-cyano-4-hydroxycinnamic acid (1 μL of a saturated solution in 1:1 H2O/CH3CN with 1% TFA) and analyzed by MALDI MS. […]

[2] = target: T2, E. coli aminoacyl transferase (AaT) (Escherichia coli, UniProt P0A8P1); assay: LysAlaAcm ligation assay: AaT-catalyzed transfer from aminoacyl adenosine donor to LysAlaAcm, HPLC at 325 nm; parameters: made in house; host or cells: E. coli BL21-Gold (DE3), plasmid pEG6, Ni-NTA purified; conditions: single addition of 1 mM donor, 100 μM LysAlaAcm, 2.26 μM AaT, 37° C., 4 h, no additive
T2 sequence (P0A8P1 whole entry): as above
Method: Each ligation reaction, 125 μL total volume, contained the following reagents: aminoacyl adenosine donor (1 mM), recombinant His10-tagged E. coli aminoacyl transferase (2.26 μM), and LysAlaAcm (100 μM) in the AaT Ligation Buffer (50 mM HEPES pH 8.0, 150 mm KCl, 10 mM MgCl2). The reaction mixtures were incubated at 37° C. for four hours and quenched with 1% acetic acid. The proteins were extracted from the reactions via acetone precipitation. The reactions were precipitated using 4× reaction volume of acetone and cooled at −20° C. for 1 h. Next, the reactions were centrifuged at 13,200 rpm at 4° C. for 20 min to separate the reaction from precipitated protein. The supernatant was transferred to fresh 1.5 mL centrifuge tubes and allowed for acetone evaporation overnight at room temperature. After acetone evaporation, the supernatant was dried in a Speedvac (Savant, Thermo Scientific, Fisher Inc.) for 30 min to remove residual acetone. The resulting reaction volume was dissolved up to 1.2 mL using Milli-Q water and analyzed by HPLC (gradient below) to determine ligation yield by integration of separated peak intensities monitored at 325 nm. Collected HPLC fractions were characterized through MALDI MS analysis. […] Reactions using Phe-pdCpA as donor were carried out in an identical fashion (Ellman, et al., 1991, Methods Enzymol. 202:301-336).
All HPLC analyses of LysAlaAcm ligations were monitored on an Agilent HPLC using a Waters C18 column (Milford, Mass.).
All HPLC analyses of LysAlaAcm ligations were monitored as described elsewhere herein (Gradient 1).
The extent of transfer was evaluated by HPLC analysis of reactions with adenosyl donor, AaT or BpT, and an aminocoumarin-labeled reporter peptide (for AaT, LysAlaAcm was used as previously described by Tirrell and co-workers; for BpT, AspAlaAcm was used in an analogous fashion) (Connor et al., 2008, ChemBioChem 9:366-369). Monitoring LysAlaAcm or AspAlaAcm acylation in crude reaction mixtures using absorbance at 325 nm conveniently eliminates background due to other proteins and nucleic acids, although some non-natural amino acids such as naphthylalanine (Nap) and methoxycoumarinylalanine (Mcm) also absorb in this range.
To evaluate substrate scope, reactions were analyzed after 4 h, when transfer should be complete for the fully enzymatic reaction with Phe tRNA synthetase (Connor et al., 2008, ChemBioChem 9:366-369).

[3] = target: T1, E. coli aminoacyl tRNA transferase (AaT); assay: α-Casein labeling in cleared E. coli cell lysate with unpurified AaT, then click reaction with FlAlk; conditions: fluorescence after labeling with FlAlk
Method: AaT was expressed in E. coli BL21-Gold (DE3) cells as previously described. A cleared cell lysate was obtained by centrifugation following cell lysis using sonication. Protein were modified in a final reaction volume of 110 μL with Azf-A (4c, 3 mM) using AaT (25 from cleared lysate in AaT buffer (50 mM HEPES pH 8.0, 150 mM KCl, 10 mM MgCl2). α-Casein (0.012 mg or 0.12 mg) was added to the reaction and incubated at 37° C. for 2 h, after 1 h an additional 0.3 μmole of 4c was added. For control reactions, equivalent volumes were replaced with water. Excess 4c was removed by buffer exchange four times against phosphate buffered saline (PBS, 12 mM NaH2PO4, 50 mM NaCl, 4.7 mM. KCl, pH 8.0) by Spectra/Por 1 dialysis tubing. Aliquots (18 μL) of 4c modified lysates were diluted to a final volume of 22 pit using PBS containing FlAlk (182 μM) for copper-catalyzed “click” reactions. The “click” reaction was initiated by addition of CuSO4 (100 μM), THPTA (500 μM), and sodium ascorbate (5 mM). The reaction mixtures were analyzed by PAGE gel using Coomassie staining and fluorescence as above.
After AaT-catalyzed modification of α-casein with Azf, residual 4c was removed by dialysis. […] Azf transfer was successful, as shown by the observation of fluorescence after labeling with FlAlk.

[4] = target: T2, E. coli aminoacyl transferase (AaT); assay: A/AMP/ATP/pdCpA inhibition studies of ligation with Phe donor 4a; parameters: made in house; host or cells: E. coli BL21-Gold (DE3), plasmid pEG6, Ni-NTA purified
Method: Each ligation reaction was performed as described elsewhere herein.
To better understand limitations on the yield from AaT reactions, the possibilities of inhibition by hydrolyzed substrate or aminoacylated product were assessed. Since the acyl adenosine donor substrate is not regenerated during the reaction (unlike the aaRS/tRNA/AaT reaction), it was hypothesized that the adenosine byproduct might inhibit further acylation by binding to AaT. To investigate this possibility, adenosine was added to the reaction at varying concentrations and monitored the reaction timecourse by fluorescence spectroscopy and by HPLC.

[5] = target: T2, E. coli aminoacyl transferase (AaT); assay: Real time fluorometric monitoring of Nap transfer from 4d to LysAlaAcm; parameters: made in house; host or cells: E. coli BL21-Gold (DE3), plasmid pEG6, Ni-NTA purified; conditions: up to 1 mM exogenous adenosine, real time fluorescence
Method: Real time fluorescent monitoring of Nap addition to LysAlaAcm was carried out using reaction solutions prepared on the 500 μL scale in stirred quartz cuvettes with 1.00 cm path lengths. Reagent concentrations were as described elsewhere herein, except that donor 4d was withheld until the cuvette was placed in the fluorometer and temperature equilibrated. Reactions were then initiated by addition of 20 μL of 25 mM Nap-A (4d) stock or water (for negative controls). Fluorescence emission at 390 nm was monitored after excitation at 325 nm. Prior calibration had shown that NapLysAlaAcm (5d) concentrations could be estimated from fluorescence intensity readings (F5d) using the equation [5d]=(1−(F5d/FControl))1.39[LysAlaAcm], where fControl is the fluorescence reading of the reaction with water added instead of 4d. […]
In order to monitor conversion of LysAlaAcm to NapLysAlaAcm (5d) in real time, a fluorometric assay was designed based on intramolecular quenching of aminocoumarin fluorescence by the naphthyl ring. Equimolar solutions of LysAlaAcm and NapLysAlaAcm, as well as mixtures of the two solutions, were prepared and their fluorescence was compared as depicted in FIG. 18A. […]
The present experiment was also achieved to monitor product formation in real time based on partial quenching of coumarin fluorescence upon addition of Nap to the LysAlaAcm peptide to form 5d. […]

[N-]=[N+]=Nc1ccc(C[C@H](N)C(=O)O[C@@H]2[C@H](O)[C@@H](CO)O[C@H]2n2cnc3c(N)ncnc32)cc1 [4c, (S)-(2R,3R,4R,5R)-2-(6-amino-9H-purin-9-yl)-4-hydroxy-5-(hydroxymethyl)tetrahydrofuran-3-yl 2-amino-3-(4-azidophenyl)propanoate]
Conversion of α-casein, trypsin digest and MALDI MS [1]: Complete conversion | Ligated Product Yield (%) [2]: 78.5 ± 5.2% | Azf transfer to α-casein in crude E. coli lysate with unpurified AaT [3]: successful

Nc1ncnc2c1ncn2[C@@H]1O[C@H](CO)[C@@H](O)[C@H]1O [adenosine]
Inhibition of addition from the Phe donor 4a ([4]; 5 mM added): not inhibited | Ki ([4]; Phe donor 4a transfer reaction): > 5 mM | Inhibition of Nap transfer to LysAlaAcm from 4d [5]: did not significantly inhibit; also recorded: No significant inhibition
